“Also recorded” adds a separate entry of the source. Read-outs that look alike come from different tables or passages of the source.
Key:
[1] = molecular target: T1, catechol-O-methyl transferase (COMT) (Rattus norvegicus, UniProt P22734); test: Inhibition of catechol-O-methyl transferase (formation of tritium metanephrine); assay type: biochemical
T1 sequence (P22734 1-221 isoform P22734-2): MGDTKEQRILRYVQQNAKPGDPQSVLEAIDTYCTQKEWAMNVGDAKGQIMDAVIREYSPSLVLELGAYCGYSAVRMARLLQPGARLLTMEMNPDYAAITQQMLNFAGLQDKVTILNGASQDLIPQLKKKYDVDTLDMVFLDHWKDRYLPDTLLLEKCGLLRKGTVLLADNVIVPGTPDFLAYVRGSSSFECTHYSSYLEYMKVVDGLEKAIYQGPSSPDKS
Protocol: The compounds (I), (II) and (III) can be determined by measuring inhibition of COMT. The activity of COMT is measured in accordance with the method reported by B. Nikodejevic et al. (Ref. "The Journal of Pharmacology and Experimental Therapeutics", Vol. 174, pp. 83-93, by B. Nikodejevic et al., 1970). 0.5 cc total volume of reaction liquid is prepared from 0.125 cc of water, 0.05 cc of 0.1 mole phosphate buffer solution (pH 8.0), 0.1 cc of 0.1 mole magnesium chloride solution, 0.05 cc. of 0.05 mole adrenaline solution, 0.075 cc of 0.5 millimole tritium-8-adenosyl methionine aqueous solution (2.2 × 10^5 cpm), 0.05 cc of sample solution and 0.05 cc of enzyme solution. These solutions are mixed together at 0° C. and, after reacting for 20 minutes at 37° C., 1 cc of 0.5 mole boric acid buffer solution (pH 10.0) is added to stop the reaction. Then, tritium metanephrine (^3 H-metanephrine) wherein the meta-hydroxyl group has been methylated is extracted with a solvent mixture such as toluene-isoamyl alcohol (3:2). A quantity of solvent portion is then sampled and its radioactivity is measured by use of a liquid scintillation counter. The thusly obtained measurement of radioactivity tells the quantity of formed metanephrine, which in turn permits one to determine the inhibition.

[2] = test system: bacteria; test: Inhibiting action against growth of bacteria; assay type: cell-based; settings: at 100 .nu./cc
[3] = molecular target: T2, histidine decarboxylase (Homo sapiens, UniProt P19113); test: Inhibition of histidine decarboxylase (formation of histamine-2-14C); assay type: biochemical; settings: for inhibiting action against histidine decarboxylase: in words; for IC50: read-out: concentration for 50% inhibition ratio of histidine decarboxylase (converted)
T2 sequence (P19113 1-662): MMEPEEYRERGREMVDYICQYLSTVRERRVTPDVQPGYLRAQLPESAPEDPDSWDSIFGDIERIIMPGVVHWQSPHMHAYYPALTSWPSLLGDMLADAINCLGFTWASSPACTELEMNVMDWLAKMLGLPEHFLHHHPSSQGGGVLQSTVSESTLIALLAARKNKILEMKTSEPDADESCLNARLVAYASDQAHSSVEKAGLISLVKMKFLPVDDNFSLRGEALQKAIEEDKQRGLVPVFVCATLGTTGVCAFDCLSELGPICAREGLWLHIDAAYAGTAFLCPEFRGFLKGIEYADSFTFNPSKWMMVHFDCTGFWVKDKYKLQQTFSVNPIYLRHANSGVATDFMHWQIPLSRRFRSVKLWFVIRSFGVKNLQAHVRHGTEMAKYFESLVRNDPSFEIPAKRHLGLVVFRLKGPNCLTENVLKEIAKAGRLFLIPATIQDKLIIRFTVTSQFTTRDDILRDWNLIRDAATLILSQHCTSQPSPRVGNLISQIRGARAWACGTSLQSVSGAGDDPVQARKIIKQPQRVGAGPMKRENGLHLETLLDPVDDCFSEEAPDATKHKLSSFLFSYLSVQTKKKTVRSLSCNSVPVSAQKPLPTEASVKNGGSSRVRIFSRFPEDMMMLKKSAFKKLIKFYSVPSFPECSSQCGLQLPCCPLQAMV
Protocol: This inhibition is measured in the following manner:
The reaction liquid is prepared from 2.5 × 10^-^4 mole of L-histidine-2-^14 C (1.0 × 10^5 cpm), 3.7 × 10^-^5 mole of pyridoxal phosphate, 0.1 cc of histidine decarboxylase (protein content, 1 mg/cc), 0.1 cc of 0.67 mole phosphate buffer solution (pH 6.8) and sample solution. To this mixture there is added distilled water until 1 cc total volume of reaction liquid is obtained. The thusly prepared reaction liquid is then allowed to react for 2 hours at 37° C. and the formed histamine-2-^14 C is adsorbed on ammonia type "Amberlite CG-50". After washing the "Amberlite CG-50" with water, the adsorbed histamine is eluted with 1 N aqueous ammonia and a quantity of elute is sampled to measure its radioactivity by use of a liquid scintillation counter. The thusly measured radioactivity tells the quantity of formed histamine, so that the inhibition against histidine decarboxylase can be determined.

[4] = Solubility; assay type: physicochemical
From the text: Now the extractive purification of the compounds (I), (II) and (III) will be described. […] These compounds are extracted from the culture filtrate under acidic conditions with butanol, butyl acetate, etc. or also from the fungus solid body (mycelium) with methanol, acetone, etc. The filtrate from the mycelial extract is concentrated by distillation under diminished pressure and the concentrated liquid, after having been adjusted to be acidic, is subjected to an extraction operation with butyl acetate or butanol. The thusly extracted liquid is mixed with the solution of butyl acetate or butanol separately extracted from the culture liquid, and then concentrated to dryness under diminished pressure.

[5] = isolated compounds, read-out: concentration inhibiting the activity of COMT by 50% (converted)
[6] = powders from silica gel fractions, Example 1, read-out: concentration showing 50% inhibition against COMT (converted)

SMILES	IC50 [1, 5]	IC50 [1, 6]	inhibiting action against the growth of bacteria [2]	inhibiting action against histidine decarboxylase [3]	IC50 ([3]; printed in parentheses)	IC50 [3]	solubility in alkaline water, methanol, ethanol and acetone [4]	solubility in butanol, ethyl acetate and butyl acetate [4]	selectivity for COMT against the other enzymes ([1]; in words, other enzymes: tyrosine hydroxylase, dopamin-β-hydroxylase, DOPA decarboxylase, histidine decarboxylase)	inhibition at 100 µg/mL ([3]; 2 h, at 100 .nu./cc, read-out: inhibition ratio against histidine decarboxylase)
COc1ccc(-c2coc3c(OC)c(O)cc(O)c3c2=O)cc1O [Compound (II), 3',5,7-trihydroxy-4',8-dimethoxy-isoflavone]	15.1 µM	236 µM	no inhibiting action	inhibit; also recorded: inhibiting action	4.5 µM	4.54 µM	soluble	slightly soluble		
COc1ccc(-c2coc3cc(O)c(OC)c(O)c3c2=O)cc1O [Compound (I), 3',5,7-trihydroxy-4',6-dimethoxy-isoflavone]			no inhibiting action	inhibit; also recorded: inhibiting action	18 µM	18.2 µM	soluble	slightly soluble		
COc1ccc(-c2coc3c(OC)c(O)c(OC)cc3c2=O)cc1O [Compound (III), 3',7-dihydroxy-4',6,8-trimethoxy-isoflavone]	0.581 µM	14.5 µM	no inhibiting action	inhibiting action			soluble	slightly soluble	inhibiting action only against COMT and not against the other enzymes	~31.9%
